The test system of test [1] is S. aureus Col (Meth^R) (lac^-). Kind of test: MIC by agar dilution, S. aureus Col (Meth^R) (lac^-). It is filed as cell-based. The conditions noted are these: Staphylococcus aureus; agar dilution; S. aureus Col (Meth^R) (lac^-); read-out: MIC. A digest of the protocol: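 Agar dilution per NCCLS (1991): two-fold dilutions from 128 μg/mL down to ≤0.25 μg/mL in Mueller-Hinton agar, each level in duplicate. Spots of about 10^4 cfu of log-phase culture; 16-20 h at 35°-36° C. MIC in μg/ml is the lowest concentration inhibiting growth.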
A general note: Agar dilution tests growth on a series of plates holding different concentrations.

The test system of test [2] is methicillin-susceptible S. aureus strain ATCC 13709. The test can be described thus: murine model for lethal bacteremic peritonitis. In kind it is in vivo, female Swiss-Webster mice. Conditions: subcutaneous, 72 h. Here is the method: Groups of 5 female Swiss-Webster mice (Simonsen, Gilroy, Calif.) each are challenged by the intraperitoneal (IP) route with tenfold increments of a bacterial inoculum. This permits calculation of the mean lethal dose (LD50) and the LD100. For preliminary evaluation of a new antibiotic, mice are challenged IP with an LD100 titer of bacteria. In two equal doses administered at the time of bacterial challenge and 2 hours later, groups of 10 mice each are treated subcutaneously with two-fold increments of the test drug and an antibiotic of known efficacy in mice and humans (i.e., positive control). Mice are observed for 72 h. Those alive at 72 h are considered long term survivors. The total drug dose in mg/kg that protects 50% of mice in a group from death is termed the mean protective dose (PD50). PD50 s are similarly determined for several pathogens. The quantitative endpoints for the new drug are then compared with those obtained with reference antibiotics.
Six ten-fold dilutions of inoculum suspended in 0.5 mL of sterilized 7% hog gastric mucin (Sigma) are injected IP in groups of 5 mice each. A control group of 5 mice receive mucin alone. Mice are observed for 72 h. Those alive at 72 h are considered long term survivors. The mean lethal dose (LD50) and 100% lethal dose (LD100) are determined by the probit test.
For antibiotic efficacy studies, mice are challenged IP with bacterial titers that will afford an LD100 for the test strain. In two equal doses administered at the time of bacterial challenge and 2 hours later, groups of 10 mice each are treated by the subcutaneous route (SC) with twofold increments of the test antibiotic; another group is treated similarly with a reference antibiotic of known efficacy in animals and man. Drug doses can range from 0.01 to 512 mg/kg. If the drug is poorly soluble, Tween 20 or propylene glycol will be employed to solubilize the drug. Animals are observed for 72 h. The 50% protective dose (PD50) is calculated in mg/kg by the probit method. The PD50 is the same as the 50% effective dose (ED50) and the 50% curative dose (CD50). Samples of blood from the hearts of all animals that die and from half the mice that survive are cultured on brain-heart infusion agar. Animals that received a protective dosage of the test drug will be alive at 72 h, although they may appear moderately ill to very ill during the observation period. […] Most of these mice will die within 6 to 48 h. Those alive at 72 h will be considered long term survivors.
(Compound numbers correspond to those in MIC tables; data
reported for challenge with methicillin-susceptible S. aureus

Molecules are shown by their SMILES. In brackets after ≈: the same amount, converted by molar mass. Where a name gives a salt, the structure may show the parent alone.

By MIC is commonly meant the lowest concentration found to suppress growth. Regarding `CO/N=C(\C(=O)N[C@@H]1C(=O)N2C(C(=O)O)=C(COC(C)=O)CS[C@H]12)c1csc(N)n1` [Cefotaxime, (7R)-3-Acetoxymethyl-7-[(Z)-2-(aminothiazol-4-yl)-2-(methoxyimino)acetamido]-3-cephem-4-carboxylic acid, reference compound], the MIC in test [1] is over 32 µg/mL. In addition, the Mortality in test [2] (dose 2.5 mg/kg) is on record as 8/10; in test [2] (dose 5 mg/kg), 5/10; in test [2] (dose 10 mg/kg) it was 3/10; in test [2] (dose 20 mg/kg), 4/10; in test [2] (dose 40 mg/kg), 1/10.

Turning to `N#CCC(=O)N[C@@H]1C(=O)N2C(C(=O)O)=C(Sc3ccccc3I)CS[C@H]12` [Cmpd 17, (7R)-7-[(Cyanoacetyl)amino]-3-(o-iodophenylthio)-3-cephem-4-carboxylic acid], in test [1], the MIC was found to be 2 µg/mL (≈ 3.99 µM). Further, the Mortality in test [2] (dose 2 mg/kg) was 8/10; in test [2] (dose 4 mg/kg), 5/10; in test [2] (dose 8 mg/kg) it was 0/10; in test [2] (dose 16 mg/kg), 0/10.

Turning to `N#Cc1ccccc1SC1=C(C(=O)O)N2C(=O)[C@@H](NC(=O)Cc3ccccc3)[C@H]2SC1` [Cmpd 41, (7R)-7-[(Phenylacetyl)amino]-3-(2-cyanophenylthio)-3-cephem-4-carboxylic acid], in test [1], the MIC came out at 1 µg/mL (≈ 2.21 µM). The Mortality in test [2] (dose 0.625 mg/kg) is given as 8/10; in test [2] (dose 1.25 mg/kg) it was 6/10; in test [2] (dose 2.5 mg/kg), 0/10; in test [2] (dose 5 mg/kg), 0/10; in test [2] (dose 10 mg/kg), 0/10.

On to `O=C(Cc1ccccc1)N[C@@H]1C(=O)N2C(C(=O)O)=C(Sc3cccnc3-c3ccccc3)CS[C@H]12` [Cmpd 81, (7R)-7-[(Phenylacetyl)amino]-3-(2-phenylpyridin-3-ylthio)-3-cephem-4-carboxylic acid], for which the minimal inhibitory concentration (MIC) in test [1] was found to be 2 µg/mL (≈ 3.97 µM). The Mortality in test [2] (dose 2 mg/kg) is 8/10; in test [2] (dose 4 mg/kg), 10/10; in test [2] (dose 8 mg/kg), 5/10; in test [2] (dose 16 mg/kg), 2/10.

In the case of `O=C(Cc1ccccc1)N[C@@H]1C(=O)N2C(C(=O)O)=C(Sc3ccnn3-c3ccccc3)CS[C@H]12` [Cmpd 87, (7R)-7-[(Phenylacetyl)amino]-3-(1-N-phenylpyrazol-5-ylthio)-3-cephem-4-carboxylic acid], the MIC in test [1] came to 1 µg/mL (≈ 2.03 µM). Further, the Mortality in test [2] (dose 2 mg/kg) is on record as 4/10; in test [2] (dose 4 mg/kg), 3/10; in test [2] (dose 8 mg/kg), 0/10; in test [2] (dose 16 mg/kg) it was 0/10.

Take `N#CCC(=O)N[C@@H]1C(=O)N2C(C(=O)O)=C(Sc3ccnn3-c3ccccc3)CS[C@H]12` [Cmpd 88, (7R)-7-[(Cyanoacetyl)amino]-3-(1-N-phenylpyrazol-5-ylthio)-3-cephem-4-carboxylic acid]: the MIC in test [1] was 4 µg/mL (≈ 9.06 µM). Further, the Mortality in test [2] (dose 0.625 mg/kg) was 2/10; in test [2] (dose 1.25 mg/kg) it was 1/10; in test [2] (dose 2.5 mg/kg) it was 0/10; in test [2] (dose 5 mg/kg), 0/10; in test [2] (dose 10 mg/kg) it was 0/10.

Turning to `Nc1nc(/C(=N/OC2CCCC2)C(=O)N[C@@H]2C(=O)N3C(C(=O)O)=C(Sc4ccnn4-c4ccccc4)CS[C@H]23)cs1` [Cmpd 89, (7R)-7-[(Z)-2-(aminothiazol-4-yl)-2-(cyclopentyloxyimino)acetamido]-3-(1-N-phenylpyrazol-5-ylthio)-3-cephem-4-carboxylic acid], the MIC in test [1] was 2 µg/mL (≈ 3.27 µM). The Mortality is 9/10 in test [2] (dose 0.625 mg/kg); 9/10 in test [2] (dose 1.25 mg/kg); 9/10 in test [2] (dose 2.5 mg/kg); 8/10 in test [2] (dose 5 mg/kg); 8/10 in test [2] (dose 10 mg/kg).

Take `N=C(N)SCc1ccc(CC(=O)N[C@@H]2C(=O)N3C(C(=O)O)=C(Sc4ccccc4CSC(=N)N)CS[C@H]23)cc1` [Cmpd 97, (7R)-7-[((4-isothiouroniummethylphenyl)acetyl)amino]-3-(2-isothiouroniummethylphenylthio)-3-cephem-4-carboxylate, trifluoroacetic acid salt]: the MIC in test [1] worked out at 2 µg/mL. For the same compound, the Mortality in test [2] (dose 0.3125 mg/kg) is 8/10; in test [2] (dose 0.625 mg/kg) it was 5/10; in test [2] (dose 1.25 mg/kg) it was 3/10; in test [2] (dose 2.5 mg/kg), 2/10; in test [2] (dose 5 mg/kg), 0/10.

For `N=C(N)SCc1ccccc1SC1=C(C(=O)O)N2C(=O)[C@@H](NC(=O)Cc3ccccc3CN)[C@H]2SC1` [Cmpd 101, (7R)-7-[((2-Aminomethylphenyl)acetyl)amino]-3-(2-isothiouroniummethylphenylthio)-3-cephem-4-carboxylate, trifluoroacetic acid salt], the MIC in test [1] turned out to be 4 µg/mL. The Mortality is recorded as 5/10 in test [2] (dose 0.625 mg/kg); 2/10 in test [2] (dose 1.25 mg/kg); 0/10 in test [2] (dose 2.5 mg/kg); 0/10 in test [2] (dose 5 mg/kg); 0/10 in test [2] (dose 10 mg/kg).

For the compound `N#Cc1ncccc1SC1=C(C(=O)O)N2C(=O)[C@@H](NC(=O)Cc3ccccc3)[C@H]2SC1` [Cmpd 102, (7R)-7-[(Phenylacetyl)amino]-3-(2-cyanopyridin-3-ylthio)-3-cephem-4-carboxylic acid], in test [1], the MIC was 4 µg/mL (≈ 8.84 µM). Moreover, the Mortality was 10/10 in test [2] (dose 0.3125 mg/kg); 8/10 in test [2] (dose 0.625 mg/kg); 7/10 in test [2] (dose 1.25 mg/kg); 5/10 in test [2] (dose 2.5 mg/kg); 0/10 in test [2] (dose 5 mg/kg).

Turning to `O=C(Cc1ccccc1)N[C@@H]1C(=O)N2C(C(=O)O)=C(Sc3cccnc3-n3cccn3)CS[C@H]12` [Cmpd 103, (7R)-7-[(Phenylacetyl)amino]-3-(2-(pyrazol-1-yl)pyridin-3-ylthio)-3-cephem-4-carboxylic acid], the MIC in test [1] came out at 2 µg/mL (≈ 4.05 µM). Also, the Mortality is given as 7/10 in test [2] (dose 0.625 mg/kg); 7/10 in test [2] (dose 1.25 mg/kg); 7/10 in test [2] (dose 2.5 mg/kg); 5/10 in test [2] (dose 5 mg/kg); 0/10 in test [2] (dose 10 mg/kg).

As for `CCC(CC)O/N=C(\C(=O)N[C@@H]1C(=O)N2C(C(=O)O)=C(Sc3ccnn3-c3ccccc3)CS[C@H]12)c1csc(N)n1` [Cmpd 104, (7R)-7-[(Z)-2-(aminothiazol-4-yl)-2-(3-pentyloxyimino)acetamido]-3-(1-N-phenylpyrazol-5-ylthio)-3-cephem-4-carboxylic acid], the MIC in test [1] was determined as 2 µg/mL (≈ 3.26 µM). The Mortality is given as 6/10 in test [2] (dose 0.625 mg/kg); 10/10 in test [2] (dose 1.25 mg/kg); 8/10 in test [2] (dose 2.5 mg/kg); 8/10 in test [2] (dose 5 mg/kg); 9/10 in test [2] (dose 10 mg/kg).

As for `CSCC(=O)N[C@@H]1C(=O)N2C(C(=O)O)=C(Sc3ccnn3-c3ccccc3)CS[C@H]12` [Cmpd 106, (7R)-7-[(methylthioacetyl)amino]-3-(1-N-phenylpyrazol-5-ylthio)-3-cephem-4-carboxylic acid], the MIC in test [1] is 1 µg/mL (≈ 2.16 µM). For the same compound, the Mortality in test [2] (dose 0.1562 mg/kg) is recorded as 9/10; in test [2] (dose 0.3125 mg/kg) it was 9/10; in test [2] (dose 0.625 mg/kg), 6/10; in test [2] (dose 1.25 mg/kg) it was 2/10; in test [2] (dose 2.5 mg/kg) it was 1/10.

`O=C(CC1CC1)N[C@@H]1C(=O)N2C(C(=O)O)=C(Sc3ccnn3-c3ccccc3)CS[C@H]12` [Cmpd 107, (7R)-7-[(cyclopropylacetyl)amino]-3-(1-N-phenylpyrazol-5-ylthio)-3-cephem-4-carboxylic acid]: the minimum inhibitory concentration (MIC) in test [1] worked out at 4 µg/mL (≈ 8.76 µM). Further, the Mortality is on record as 8/10 in test [2] (dose 0.625 mg/kg); 6/10 in test [2] (dose 1.25 mg/kg); 5/10 in test [2] (dose 2.5 mg/kg); 0/10 in test [2] (dose 5 mg/kg); 0/10 in test [2] (dose 10 mg/kg).

Values taken from US5698547A, “Cephalosporin antibiotics” (Microcide Pharmaceuticals, Inc., priority 1995, dated 1997).
